Measurements reported in patent US12048685B2, “Transient receptor potential cation channel subfamily m member 8 (TRPM8) antagonists and methods of use” (Ora, Inc., priority 2015, dated 2024).
Counter-ions that a name gives are not always drawn.

Experiments:
Balb/C mice = conditions: 15 minutes and 24 hours post TRPM8 antagonist dose (0.01%, 0.05%, 0.10%), immediately post menthol dose, water control, FIG. 6
Protocol: Behavioral endpoints, e.g. blinking for balb/cs nice, was tested. […] Treatment of the mice with water was used as a control. TRPM8 antagonist was used at concentrations of 0.01%, 0.05% and 0.10%.

TRPM-8 channels = molecular target: T1, TRPM-8 channels (Homo sapiens, UniProt Q7Z2W7); experiment: Post-menthol treatment symptoms (Drop Discomfort) after dosing, menthol-containing eyedrop (ROHTO Hydra); type: in vivo
T1 construct: from tissue; host or cells: eye (ocular surface) of living human subjects
Text: Post-dose, exposure to Menthol (ROHTO Hydra), as well as to an adverse environment (CAESM), was used to elicit symptomology in 3 patients with healthy eyes. Validated symptom scales were used to collect levels of discomfort secondary to the exposures (Ora Calibra™ Ocular Discomfort Questionnaire, Drop Comfort Questionnaire). A summary of the findings is presented below. The effect of topical menthol application after dosing with Compound I or placebo was examined. After dosing with Compound I or placebo, 1 drop menthol-containing OTC eyedrop were administered bilaterally (ROHTO Hydra). Menthol is known to act upon TRPM-8 channels, effectively causing neural activity similar in nature to exposure to cold temperature. As such, menthol was used to induce a “cooling” symptom. […] Baseline (pre-menthol) symptoms were “0” for each eye, for all 3 subjects (data not shown).

[1] = Ocular discomfort on exposure to a Controlled Adverse Environment (CAE); type: in vivo, human; conditions: CAE for 25 minutes, asked every 5 minutes, p<0.01, FIGS. 4A and B
Protocol: (§1) A series of experiments were carried out assessing the clinical signs and symptoms of dry eye disease or severe dry eye disease using a commercially available TRPM8 antagonist, N-(2-Aminoethyl)-N-(4-(benzyloxy)-3-methoxybenzyl)thiophene-2-carboxamide hydrochloride, N-(2-Aminoethyl)-N-[[3-methoxy-4-(phenylmethoxy)phenyl]methyl]-2-thiophenecarboxamide hydrochloride (Sigma Aldrich M8-B hydrochloride (SML0893)), shown below as Compound I, at a concentration of 0.1% (vs placebo), administered unilaterally.
(§2) Post-dose, exposure to Menthol (ROHTO Hydra), as well as to an adverse environment (CAESM), was used to elicit symptomology in 3 patients with healthy eyes. Validated symptom scales were used to collect levels of discomfort secondary to the exposures (Ora Calibra™ Ocular Discomfort Questionnaire, Drop Comfort Questionnaire). A summary of the findings is presented below.
The effect of CAE exposure after dosing with Compound I or placebo was examined. After dosing with Compound I or placebo, subjects were exposed to a Controlled Adverse Environment (CAE) for 25 minutes, in order to elicit symptomology similar in nature to dry eye symptoms. An Ocular Discomfort Questionnaire (0-4 scale) was asked every 5 minutes.

[2] = Ocular discomfort on exposure to Turbo-CAE after CAE (severe dry eye symptoms); type: in vivo, human; conditions: 15 minutes of Turbo-CAE after 25-minute CAE, p<0.01, FIGS. 5A and B
Protocol: as §1, §2
Next, the effect of Turbo-CAE exposure after dosing with Compound I or placebo was examined. After 25-minute Controlled Adverse Environment (CAE) exposure, subjects were exposed to 15 minutes of Turbo-CAE, in order to elicit symptomology similar in nature to severe dry eye symptoms. An Ocular Discomfort Questionnaire (0-4 scale) was asked every 5 minutes.

[3] = Corneal sensitivity measured by Cochet Bonnet after topical dosing; type: in vivo, human
Protocol: as §1, §2
In a first set of experiments, the effect of Compound I on corneal sensitivity was examined. Subjects (shown by initials E-A, KJL, M-C) were dosed with 20 ul of Compound I (0.1%) or a placebo (BSS).

T1 sequence (Q7Z2W7 whole entry): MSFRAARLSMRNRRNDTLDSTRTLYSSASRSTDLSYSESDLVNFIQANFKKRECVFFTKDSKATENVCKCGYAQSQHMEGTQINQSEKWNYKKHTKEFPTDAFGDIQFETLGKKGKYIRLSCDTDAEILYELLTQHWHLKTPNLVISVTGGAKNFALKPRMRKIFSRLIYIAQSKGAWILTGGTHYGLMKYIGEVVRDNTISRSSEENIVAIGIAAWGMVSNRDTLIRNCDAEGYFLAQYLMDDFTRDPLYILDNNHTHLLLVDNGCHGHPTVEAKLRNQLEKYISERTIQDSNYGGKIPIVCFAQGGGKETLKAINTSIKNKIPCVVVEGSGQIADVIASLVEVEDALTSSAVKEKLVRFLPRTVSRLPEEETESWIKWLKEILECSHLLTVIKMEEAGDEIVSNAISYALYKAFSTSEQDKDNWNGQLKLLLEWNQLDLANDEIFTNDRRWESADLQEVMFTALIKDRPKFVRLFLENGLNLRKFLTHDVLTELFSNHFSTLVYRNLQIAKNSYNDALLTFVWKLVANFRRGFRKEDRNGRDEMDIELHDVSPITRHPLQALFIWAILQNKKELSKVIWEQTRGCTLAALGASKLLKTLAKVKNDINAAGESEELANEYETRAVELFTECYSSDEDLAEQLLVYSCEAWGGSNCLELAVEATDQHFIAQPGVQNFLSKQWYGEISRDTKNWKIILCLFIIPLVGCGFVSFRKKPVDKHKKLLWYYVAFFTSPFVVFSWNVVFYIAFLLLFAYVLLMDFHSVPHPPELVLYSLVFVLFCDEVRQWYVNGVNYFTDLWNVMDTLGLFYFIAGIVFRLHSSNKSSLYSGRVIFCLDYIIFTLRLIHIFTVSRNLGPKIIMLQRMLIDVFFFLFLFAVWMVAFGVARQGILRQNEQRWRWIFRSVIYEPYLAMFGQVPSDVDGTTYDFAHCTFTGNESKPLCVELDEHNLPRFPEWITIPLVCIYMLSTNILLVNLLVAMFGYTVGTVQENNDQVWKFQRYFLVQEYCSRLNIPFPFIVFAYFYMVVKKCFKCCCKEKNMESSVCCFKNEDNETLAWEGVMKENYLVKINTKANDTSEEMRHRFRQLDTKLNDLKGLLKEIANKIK

action of menthol (cooling symptom) (TRPM-8 channels; 0.1% dosed before 1 drop menthol-containing OTC eyedrop bilaterally, FIGS. 3A and B) | effect on corneal sensitivity ([3]; 20 ul of 0.1%, unilateral, vs placebo (BSS), 3 subjects with healthy eyes, Cochet Bonnet, FIG. 2) | decrease in sensitivity ([3]; Subject, 70 mm to 65 mm, 20 ul of 0.1%) | changes in sensitivity ([3]; Subjects E-A and M-C, 20 ul of 0.1%) | difference in corneal sensitivity pre- to post-dose ([3]; p=0.42, 3 subjects) | Molecule | blink rate per minute (Balb/C mice) | subject-reported symptom scores (Drop Discomfort, 0-10 scale) vs placebo (TRPM-8 channels; post-menthol, treated eye vs placebo eye, p<0.01, 3 subjects) | symptom scores (Ocular Discomfort Questionnaire, 0-4 scale) vs placebo [1] | symptom scores (Ocular Discomfort Questionnaire, 0-4 scale) vs placebo [2]
 |  |  |  |  | CC1CCC(C(C)C)C(O)C1 (stereo not shown) [menthol] | increase in blink rate |  |  | 
effectively block the action of menthol | minimal effect | 5 mm | no detectable changes | No significant difference | COc1cc(CN(CCN)C(=O)c2cccs2)ccc1OCc1ccccc1 [Compound I, N-(2-Aminoethyl)-N-(4-(benzyloxy)-3-methoxybenzyl)thiophene-2-carboxamide hydrochloride] |  | significantly lower symptom scores than placebo | significantly lower symptom scores than placebo | significantly lower symptom scores than placebo
 |  |  |  |  | N-(2-Aminoethyl)-N-(4-(benzyloxy)-3-methoxybenzyl)thiophene-2-carboxamide hydrochloride [Compound I] | reproducibly blocked |  |  | 
